Where no end group is shown, it is not given here.
How the values were obtained:
[1] = molecular target: T1, RAMP1-CLR ECD (CGRP); purified MBP-RAMP1 ECD-(GS)5-CLR ECD-H6 fusion protein (Homo sapiens, UniProt O60894+Q16602); test: Fluorescence polarization (FP) peptide binding competition assay, CGRP receptor ECD complex; settings: for Receptor Selectivity (in words): CGRP vs AM1 receptor ECD complexes; for Receptor Selectivity (in words) / Receptor Selectivity, fold for CGRP: FP assay; for Ki: RAMP1-CLR ECD (CGRP) KI (nM), FP competition, FITC-AM W/W probe 7 nM, fusion protein 15 nM; for Receptor Selectivity, fold for CGRP: CGRP (RAMP1-CLR ECD) over AM1 (RAMP2-CLR ECD)
T1 construct: MBP-hRAMP1.24-111-(Gly-Ser)5-hCLR.29-144-H6; made in house; host or cells: E. coli
Procedure: Fluorescence polarization peptide binding assay. […] The reactions (50 μL) were incubated for 2 hours at room temperature to reach equilibrium, and the anisotropy was measured in black half-area 96-well plates using a BMG LABTECH's POLARstar® Omega plate reader (Ortenberg, Germany). The reaction buffer was 50 mM HEPES, pH 7.5, 150 mM NaCl, 0.5 mg/ml fatty acid-free BSA, 0.5 mM EDTA, 0.5 mM maltose. Ki values were calculated using nonlinear regression fitting of the competition curves to the exact analytical equations of Roehrl et al. (Biochemistry (2004) 43:16056-66) using GraphPad Prism 5.0 (GraphPad Software, San Diego Calif.).
(§1) The ability of the indicated peptides to displace a FITC-Ahx-AM(37-52)NH2 [S45W, Q50W] probe (7 nM) from purified MBP-RAMP1 ECD-(GS)5-CLR ECD-H6 fusion protein (15 nM) was assessed by fluorescence polarization (anisotropy). The reactions were incubated for 2 hours at room temperature to reach equilibrium, and the anisotropy was measured in black half-area 96-well plates using a BMG LABTECH's POLARstar® Omega plate reader (Ortenberg, Germany). The reaction buffer was 50 mM HEPES, pH 7.5, 150 mM NaCl, 0.5 mg/ml fatty acid-free BSA, 0.5 mM EDTA, 0.5 mM maltose. KI values were calculated using nonlinear regression fitting of the competition curves to the exact analytical equations of Roehrl et al. (Biochemistry (2004) 43:16056-66) using GraphPad Prism 5.0 (GraphPad Software, San Diego Calif.).
as §1, with “Single representative experiments conducted with duplicate samples are shown. Error bars are S.E.M. The ability” for “The ability”, “displace a FITC-Ahx-AM(37-52)NH2[S45W, Q50W] probe” for “displace a FITC-Ahx-AM(37-52)NH2 [S45W, Q50W] probe”
A fluorescence polarization/anisotropy (FP) peptide-binding assay was developed using N-terminally FITC-labeled AM(37-52) S45W/Q50W as the probe, hereafter “FITC-AM W/W.” The probe was custom synthesized and HPLC-purified by RS Synthesis. The large size difference between the MBP-RAMP ECD-CLR ECD fusion proteins (˜65 kDa) and the probe (˜2.5 kDa) ensures a significant anisotropy difference between bound and free states of the probe. […] Kd values for the probe at each of the tethered ECD fusion proteins were determined in equilibrium saturation binding experiments (data not shown), and KI values were determined for unlabeled peptides in equilibrium competition experiments (Table 1; FIGS. 2-5). The data were analyzed according to exact analytical equations using non-linear regression curve fitting in GraphPad Prism 5.0 (GraphPad Software) via user-defined equations.

[2] = molecular target: T2, RAMP2-CLR ECD (Homo sapiens, UniProt O60895+Q16602, L106R); test: AlphaLISA/AlphaScreen competition peptide binding assay, AM1 receptor ECD complex
T2 construct: MBP-hRAMP2.55-140 [L106R]-(Gly-Ser-Ala)3-hCLR.29-144-H6; made in house; host or cells: E. coli
Procedure: Protein production and characterization and peptides. Plasmid construction, mutagenesis, protein expression, purification, and the AlphaScreen® peptide binding assay (Perkin-Elmer, Waltham, Mass.) were performed as previously described with minor modifications to the AlphaScreen® assay (Hill and Pioszak, Protein expression and purification (2013) 88:107-113; and Moad and Pioszak, Protein Sci. (2013) 22:1775-85). Synthetic peptides were from RS Synthesis (Louisville, Ky.), Bachem (Bubendorf, Switzerland), or were synthesized in-house. […]
FIG. 1 depicts in (B) binding of an AM C-terminal peptide, AM(37-52)NH2, and the two variant AM C-terminal peptides to purified AM1 receptor extracellular domain complex (CLR:RAMP2). The ability of the indicated peptides to displace a Biotin-CGRP probe (50 nM) from purified MBP-RAMP1 ECD-(GS)5-CTR ECD-H6 fusion protein (5 nM) or a Biotin-AM probe (25 nM) from purified MBP-RAMP2 ECD [L106R]-(GS)5-[…] ECD-H6 fusion protein (5 nM) was assessed by AlphaLISA® luminescent peptide binding assay (Perkin-Elmer, Waltham, Mass.). […] The reactions were incubated for 5 hours at room temperature to reach equilibrium, and the luminescence was measured in white 384-well plates using a BMG LABTECH's POLARstar Omega plate reader (Ortenberg, Germany). […]

[3] = molecular target: T3, AMY1 receptor extracellular domain complex; purified MBP-RAMP1 ECD-(GS)5-CTR ECD-H6 fusion protein (Homo sapiens, UniProt O60894+P30988); test: AlphaLISA luminescent peptide binding assay, AMY1 receptor ECD complex; settings: displacement of Biotin-AC413 probe (100 nM), fusion protein 200 nM
T3 construct: purified MBP-RAMP1 ECD-(GS)5-CTR ECD-H6 fusion protein (200 nM); made in house; host or cells: HEK293T
Procedure: A single representative experiment conducted with duplicate samples is shown. Error bars are S.E.M. The ability of the indicated peptides to displace a Biotin-AC413 probe (100 nM) from purified MBP-RAMP1 ECD-(GS)5-CTR ECD-H6 fusion protein (200 nM) was assessed by AlphaLISA® luminescent peptide binding assay (Perkin-Elmer, Waltham, Mass.) as described in Lee et al. (J Biol. Chem (2016) 291:8686-8700). The reactions were incubated for 5 hours at room temperature to reach equilibrium, and the luminescence was measured in white 384-well plates using a BMG LABTECH's POLARstar® Omega plate reader (Ortenberg, Germany). The reaction buffer was 50 mM MOPS, pH 7.4, 150 mM NaCl, 7 mg/ml fatty acid-free BSA and the streptavidin-coated donor beads and MBP-antibody coated acceptor beads were at 15 μg/ml each. IC50 values were calculated using nonlinear regression fitting of the competition curves to a three-parameter, one-site competitive binding equation in GraphPad Prism 5.0 (GraphPad Software, San Diego Calif.).

[4] = molecular target: T4, full-length CGRP (RAMP1:CLR) receptor transiently expressed in COS-7 cells (Homo sapiens, UniProt O60894+Q16602); test: Antagonism of CGRP-activated cAMP signaling in COS-7 cells; format: cell-based
T4 construct: Plasmids for expression of tagged full-length CLR and RAMP1 or RAMP2 receptors in mammalian cells were previously described; expressed in transfected cells; host or cells: COS-7
Procedure: (§2) Cell-based assays. Transfection of COS-7 cells, cAMP assay, ELISA for cell surface expression, and data analysis were as previously described (Barwell et al., Peptides (2010) 31:170-176; Watkins et al., Br J Pharmacol (2014) 171:772-788).
(§3) A single representative experiment conducted with duplicate samples is shown. Error bars are S.E.M. The experiments were performed as described in Lee et al. (J Biol. Chem (2016) 291:8686-8700). […] (B) depicts antagonism of AM-activated cAMP signaling at the AM1 receptor.
(§4) Forty-eight hours after transfection, the cells were pre-incubated for 30 minutes in the absence or presence of 500 nM AM(37-52)NH2 [S45W/K46L/Q50W/Y52F], and then stimulated for 15 minutes with increasing concentrations of agonist peptide in the absence or presence of 500 nM antagonist. The cells were lysed, and cAMP was quantitated using a LANCE TR-FRET cAMP kit (Perkin-Elmer Waltham, Mass.).

[5] = molecular target: T5, full-length AM1 (RAMP2:CLR) receptor transiently expressed in COS-7 cells (Homo sapiens, UniProt O60895+Q16602); test: Antagonism of AM-activated cAMP signaling in COS-7 cells; format: cell-based; settings: 500 nM antagonist
T5 construct: Plasmids for expression of tagged full-length CLR and RAMP1 or RAMP2 receptors in mammalian cells were previously described; expressed in transfected cells; host or cells: COS-7
Procedure: as §2, §3, §4

[6] = molecular target: T6, membranes of SK-N-MC cells, which express the CGRP receptor (Homo sapiens, UniProt O60894+Q16602); settings: read-out: IC50 reported for binding to membranes of SK-N-MC cells; cited from earlier work
T6 construct: membranes of SK-N-MC cells, which express the CGRP receptor; host or cells: SK-N-MC cell membranes (endogenous receptor)

Molecule | Receptor Selectivity (in words) [1] | Ki [1] [nM] | Receptor Selectivity, fold for CGRP [1] | IC50 [3] [nM] | also measured
FVPTDVGPWSF-NH2 [N31D/S34P/K35W/A36S] | – | 1.32 | 1856-fold for CGRP | 260 | –
DKDNVAPRWLISPWGF-NH2 [S45W/K46L/Q50W/Y52F] | – | 1.91 | 2131-fold for CGRP | 16000 | Receptor Selectivity, fold for CGRP ([1]; listed as AM(37-52)NH2 [S45W/K46L/Q50W/Y52F]): > 2000 fold; Kb [4]: 10.5 nM; pA2, antagonism of CGRP-activated cAMP signaling at the CGRP receptor ([4]; 500 nM antagonist, COS-7 cells, Gaddum/Schild EC50 shift, slopes constrained to 1): ~8; affinity for the intact CGRP receptor suggested by pA2 ([4]; COS-7 cells): ~10 nM; antagonism of the AM1 receptor (cAMP) [5]: did not antagonize the AM1 receptor
CC(C)[C@H](NC(=O)[C@H](CC(=O)O)NC(=O)[C@@H](NC(=O)[C@@H]1CCCN1C(=O)[C@@H](NC(=O)[C@@H](N)Cc1ccccc1)C(C)C)[C@@H](C)O)C(=O)NCC(=O)N1CCC[C@H]1C(=O)N[C@@H](Cc1ccccc1)C(=O)N[C@@H](C)C(=O)N[C@@H](Cc1ccccc1)C(N)=O [CGRPmut [N31D/S34P/K35F]] | – | – | – | – | IC50 [6]: 29 nM

Further lines, with some results ahead:

Receptor Selectivity (in words) [1] | Ki [1] [nM] | Molecule | Receptor Selectivity, fold for CGRP [1] | IC50 [3] [nM] | also measured
AM1 over CGRP | > 100000 | DKDNVAPRSKISPQGY-NH2 [WT, reference compound] | – | – | IC50 ([2]; read-out: IC50 in AlphaLISA or AlphaScreen competition assays, RAMP2-CLR ECD): 5000 to 15000 nM
Non-selective | 501 | DKDNVAPRSKISPWGY-NH2 [Peptide Q50W] | – | – | fold increased affinity for RAMP2-CLR ECD ([2]; competition assays, relative to AM(37-52)NH2): ~100 fold

— US10723778B2, “Variants of adrenomedullin and calcitonin gene-related peptide and methods of use” (The Board of Regents of the University of Oklahoma, priority 2015, dated 2020)
